From PubChem BioAssay AID1963845 (Molecular Pharmacology Branch, DTP, NCI, 2024)

System: 429239-143-T-J1-PDC complex spheroid viability
Test: Anticancer human tumor 429239-143-T-J1-PDC patient-derived small cell lung carcinoma cell line growth inhibition [POLQ]
Details: for IC50: curve of first compound; for viability, T/C: stronger effect = lower value
Protocol: Multicellular complex tumor spheroid response to Polymerase (POL) inhibitors (novobiocin, ART-558, RP6685) in combination with a variety of drugs and investigational agents in selected tumor cell lines
The POL inhibitors (novobiocin, ART-558, and RP6685) were evaluated both individually and in combination with standard of care and investigational anticancer small molecules within a complex spheroid model of solid tumors. . Complex spheroids include a stromal component modeled by human endothelial cells (HUVEC) and fibroblasts modeled by human mesenchymal stem cells (MSCs). The concentration ranges selected for each drug and investigational agent were based upon clinically achievable concentrations if the clinical Cmax of the agent was known.
Compounds. The drugs and investigational agents: novobiocin (NSC847541), ART-558 (NSC835418), RP-6685 (NSC848927), peposertib (NSC802822), ceralasertib (NSC780249), elimusertib (NSC800525), camonsertib (NSC841442), AZD-1390 (NSC803789), olaparib (NSC753686), talazoparib (NSC767125), rucaparib (NSC756644), sotorasib (NSC818433), MRTX-1133 (NSC836407), SN-38 (NSC673596), topotecan (NSC609699), epotoside (NSC141540), doxorubicin (NSC123127), gemcitabine (NSC613327), 5-fluorouracil (NSC19893), paclitaxel (NSC125973), vemurafenib (NSC761431), MSA-2 (NSC828583), SN-011 (NSC837082), adavosertib (NSC754352), prexasertib (NSC758257), carboplatin (NSC241240) and oxaliplatin (NSC266046), were obtained from the National Cancer Institute (NCI) Developmental Therapeutics Program Chemical Repository (21). The FDA-approved anticancer drug set is available from the Developmental Therapeutics Program at https://dtp.cancer.gov/organization/dscb/obtaining/. […] The stock solutions were prepared in dimethyl sulfoxide (DMSO, Sigma-Aldrich, St. Louis, MO, cat. D2650), except for the platinum compounds which were prepared in saline (Quality Biological, Gaithersburg, MD, cat. 114-055-101), at 800-fold the tested concentration and stored at -70 degrees C prior to their use. All drugs and investigational agents were tested over a range starting from a high concentration at or near the clinical Cmax and decreasing in half-log increments. If the clinical Cmax for an agent had not been determined, the highest concentration tested was 10 microM, except for SN-38, which was tested at a high concentration of 1 microM.
Cell Culture. All cells were maintained in an incubator at 37 degrees C and 5% CO2 with 95% humidity. The PDC lines were cultured according to standard operating procedures established by the NCI PDMR (https://pdmr.cancer.gov). Table 3 of the manuscript, lists the cell lines along with the number of the three cell types plated to form the mct-spheroids and media for tumor cell growth. After thawing, all PDC lines, except 997537-175-T-J1-PDC and 415267-285-R-J2-PDC, were cultured in Matrigel-coated flasks prepared with a working solution of 1X Ham's F-12 nutrient mix, without supplementation (Thermo Fisher Scientific, cat. 11765054), 100 U/mL penicillin-streptomycin (Thermo Fisher Scientific, cat. 15140122), and 2.5% Matrigel (Corning Inc., Corning, NY, cat. 354248) for the first three passages. The two PDC lines 997537-175-T-J1-PDC and 415267-285-R-J2-PDC were cultured on uncoated flasks. The 857933-349-R-J2-PDC line was cultured in 6C/Colon 1B media containing advanced DMEM/F-12 (Thermo Fisher Scientific, cat. 12634028), 10 mM HEPES (Thermo Fisher Scientific, cat. 15630080), 1X GlutaMAX supplement (Thermo Fisher Scientific, cat. 35050061), 0.1 mg/mL primocin (InvivoGen, San Diego, CA, cat. ant-pm-2), 10% defined fetal bovine serum, heat inactivated (HyClone Laboratories Inc., Logan, UT, cat. SH30070.03HI), 50% L-WRN conditioned media (ATCC, cat. CRL-3276), 1.25 mM N-Acetyl-L-cysteine (Sigma-Aldrich, cat. A9165), 10 mM nicotinamide (Sigma-Aldrich, cat. N0636), 1X B-27 supplement (Thermo Fisher Scientific, cat. 17504044), 1X N-2 supplement (Thermo Fisher Scientific, cat. […]

[1] = second compound 0.0316 µM, first compound 0.0316 µM
[2] = second compound 0.0316 µM, first compound 0.1 µM
[3] = second compound 0.0316 µM, first compound 0.316 µM
[4] = second compound 0.0316 µM, first compound 1 µM
[5] = second compound 0.0316 µM, first compound 3.16 µM
[6] = second compound 0.0316 µM, first compound 10 µM
[7] = second compound 0.1 µM, first compound 0.0316 µM
[8] = second compound 0.1 µM, first compound 0.1 µM
[9] = second compound 0.1 µM, first compound 0.316 µM
[10] = second compound 0.1 µM, first compound 1 µM
[11] = second compound 0.1 µM, first compound 3.16 µM
[12] = second compound 0.1 µM, first compound 10 µM
[13] = second compound 0.316 µM, first compound 0.0316 µM
[14] = second compound 0.316 µM, first compound 0.1 µM
[15] = second compound 0.316 µM, first compound 0.316 µM
[16] = second compound 0.316 µM, first compound 1 µM
[17] = second compound 0.316 µM, first compound 3.16 µM
[18] = second compound 0.316 µM, first compound 10 µM
[19] = second compound 1 µM, first compound 0.0316 µM
[20] = second compound 1 µM, first compound 0.1 µM
[21] = second compound 1 µM, first compound 0.316 µM
[22] = second compound 1 µM, first compound 1 µM
[23] = second compound 1 µM, first compound 3.16 µM
[24] = second compound 1 µM, first compound 10 µM
[25] = second compound 3.16 µM, first compound 0.0316 µM
[26] = second compound 3.16 µM, first compound 0.1 µM
[27] = second compound 3.16 µM, first compound 0.316 µM
[28] = second compound 3.16 µM, first compound 1 µM
[29] = second compound 3.16 µM, first compound 3.16 µM
[30] = second compound 3.16 µM, first compound 10 µM
[31] = second compound 10 µM, first compound 0.0316 µM
[32] = second compound 10 µM, first compound 0.1 µM
[33] = second compound 10 µM, first compound 0.316 µM
[34] = second compound 10 µM, first compound 1 µM
[35] = second compound 10 µM, first compound 3.16 µM
[36] = second compound 10 µM, first compound 10 µM
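Further: luminescence signal used as surrogate measure of viable cells; spheroids exposed to compounds for seven days before readout.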
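Wherever viability, T/C is given: 100% = DMSO vehicle control viability as luminescence relative to vehicle.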

O=C(Nc1ccc(O)c(NS(=O)(=O)c2ccc(F)cc2)c1)c1ccc(-c2ccccc2)cc1 + COC1C(OC(N)=O)C(O)C(Oc2ccc3c(O)c(NC(=O)c4ccc(O)c(CC=C(C)C)c4)c(=O)oc3c2C)OC1(C)C
IC50 (second compound 0.0316 µM): > 10 µM | IC50 (second compound 0.1 µM): > 10 µM | IC50 (second compound 0.316 µM): > 10 µM | IC50 (second compound 1 µM): > 10 µM | IC50 (second compound 3.16 µM): > 10 µM | IC50 (second compound 10 µM): > 10 µM | viability, T/C [1]: 110% | viability, T/C [2]: 97.1% | viability, T/C [3]: 108% | viability, T/C [4]: 105% | viability, T/C [5]: 99% | viability, T/C [6]: 66.7% | viability, T/C [7]: 90.2% | viability, T/C [8]: 92.9% | viability, T/C [9]: 99.6% | viability, T/C [10]: 121% | viability, T/C [11]: 113% | viability, T/C [12]: 61.3% | viability, T/C [13]: 101% | viability, T/C [14]: 83.7% | viability, T/C [15]: 95.2% | viability, T/C [16]: 105% | viability, T/C [17]: 106% | viability, T/C [18]: 64.4% | viability, T/C [19]: 104% | viability, T/C [20]: 92.8% | viability, T/C [21]: 93% | viability, T/C [22]: 90.8% | viability, T/C [23]: 107% | viability, T/C [24]: 59.4% | viability, T/C [25]: 98.9% | viability, T/C [26]: 90% | viability, T/C [27]: 100% | viability, T/C [28]: 98.7% | viability, T/C [29]: 93.3% | viability, T/C [30]: 76.9% | viability, T/C [31]: 99.1% | viability, T/C [32]: 85.9% | viability, T/C [33]: 99% | viability, T/C [34]: 102% | viability, T/C [35]: 113% | viability, T/C [36]: 68.6%

CCCS(=O)(=O)Nc1ccc(F)c(C(=O)c2c[nH]c3ncc(-c4ccc(Cl)cc4)cc23)c1F + COC1C(OC(N)=O)C(O)C(Oc2ccc3c(O)c(NC(=O)c4ccc(O)c(CC=C(C)C)c4)c(=O)oc3c2C)OC1(C)C
IC50 (second compound 0.0316 µM): > 10 µM | IC50 (second compound 0.1 µM): > 10 µM | IC50 (second compound 0.316 µM): 9.77 µM | IC50 (second compound 1 µM): 8.99 µM | IC50 (second compound 3.16 µM): > 10 µM | IC50 (second compound 10 µM): 8.86 µM | viability, T/C [1]: 105% | viability, T/C [2]: 90.4% | viability, T/C [3]: 101% | viability, T/C [4]: 102% | viability, T/C [5]: 98.6% | viability, T/C [6]: 50.5% | viability, T/C [7]: 95.7% | viability, T/C [8]: 97.4% | viability, T/C [9]: 110% | viability, T/C [10]: 102% | viability, T/C [11]: 92.4% | viability, T/C [12]: 52.5% | viability, T/C [13]: 98.8% | viability, T/C [14]: 96.3% | viability, T/C [15]: 106% | viability, T/C [16]: 87.6% | viability, T/C [17]: 109% | viability, T/C [18]: 48.9% | viability, T/C [19]: 104% | viability, T/C [20]: 100% | viability, T/C [21]: 94.5% | viability, T/C [22]: 98.8% | viability, T/C [23]: 86.2% | viability, T/C [24]: 46% | viability, T/C [25]: 109% | viability, T/C [26]: 96.3% | viability, T/C [27]: 106% | viability, T/C [28]: 83.1% | viability, T/C [29]: 98.5% | viability, T/C [30]: 53.1% | viability, T/C [31]: 92.8% | viability, T/C [32]: 101% | viability, T/C [33]: 104% | viability, T/C [34]: 84.7% | viability, T/C [35]: 119% | viability, T/C [36]: 44.1%
